Reference: PubChem BioAssay AID330 (DTP/NCI, 2004)
Several values for one entry are separate records, joined by “and”; a condition that tells them apart may be missing. Equal entries are not always repeated. Inconclusive results and toxic doses are left out.

Test system: P388 leukemia ip, CD2F1 mice, survival T/C
Experiment: NCI In Vivo Anticancer Drug Screen. Data for tumor model P388 Leukemia (intraperitoneal) in CD2F1 (CDF1) mice
Settings: endpoint: median survival time, higher = longer survival
Method: The antitumor activity of compounds was measured in mice bearing transplantable tumors. Survival or tumor size were measured and the results are expressed as the measurement made in the treated group (T) divided by the measurement made in the vehicle treated control group (C). The tumor model used in this assay is P388 Leukemia (intraperitoneal) in CD2F1 (CDF1) mice

[1] = dose: 50.0 mg/kg/injection, schedule: Q01DX005 (ip), vehicle: saline with Tween-80
[2] = dose: 100.0 mg/kg/injection, schedule: Q01DX005 (ip), vehicle: saline with Tween-80
[3] = dose: 200.0 mg/kg/injection, schedule: Q01DX005 (ip), vehicle: saline with Tween-80
[4] = dose: 60.0 mg/kg/injection, schedule: Q01DX005 (ip), vehicle: saline with Tween-80
[5] = dose: 120.0 mg/kg/injection, schedule: Q01DX005 (ip), vehicle: saline with Tween-80
[6] = dose: 240.0 mg/kg/injection, schedule: Q01DX005 (ip), vehicle: saline with Tween-80
[7] = dose: 60.0 mg/kg/injection, schedule: Q01DX005 (ip), vehicle: Klucel (hydroxypropylcellulose) (HPC)
[8] = dose: 120.0 mg/kg/injection, schedule: Q01DX005 (ip), vehicle: Klucel (hydroxypropylcellulose) (HPC)
[9] = dose: 240.0 mg/kg/injection, schedule: Q01DX005 (ip), vehicle: Klucel (hydroxypropylcellulose) (HPC)
[10] = dose: 50.0 mg/kg/injection, schedule: Q01DX009 (ip), vehicle: saline with Tween-80
[11] = dose: 100.0 mg/kg/injection, schedule: Q01DX009 (ip), vehicle: saline with Tween-80
[12] = dose: 200.0 mg/kg/injection, schedule: Q01DX009 (ip), vehicle: saline with Tween-80

For `CO[C@H]1/C=C/O[C@@]2(C)Oc3c(C)c(O)c4c(O)c(c(/C=N/N5CCCN(Cc6ccccc6)CC5)c(O)c4c3C2=O)NC(=O)/C(C)=C\C=C\[C@H](C)[C@H](O)C(C)[C@@H](O)C(C)[C@H](OC(C)=O)[C@@H]1C` (stereo partly specified), the T/C (dose: 25.0 mg/kg/injection, schedule: Q01DX009 (ip), vehicle: suspension in saline) was 107 % of control.
With `O=C(Nc1cccc(Cl)c1)/C(Cl)=C1/Sc2ccccc2NC1=O` the T/C [1] was 105 % of control, the T/C [2] was 98 % of control and the T/C [3] was 98 % of control.
`CCc1nc(N)nc(N)c1-c1ccc(Cl)c(Cl)c1.[Cl][Pd][Cl]` was tested, and the T/C (dose: 12.5 mg/kg/injection, schedule: Q04DX003 (ip), vehicle: saline with Tween-80) was 95 % of control.
`C/C(=N\Oc1ncc([N+](=O)[O-])c(O/N=C(\C)c2ccccc2)n1)c1ccccc1` was tested, and the T/C [4] was 100 % of control, the T/C [5] was 88 % of control and the T/C [6] was 91 % of control.
With `O=C1c2c(Cl)c(Cl)c(Cl)c(Cl)c2C(=O)C2(Cl)CC=CCC12Cl` (stereo unspecified) the T/C (dose: 6.25 mg/kg/injection, schedule: Q01DX005 (ip), vehicle: Klucel (hydroxypropylcellulose) (HPC)) was 101 % of control, the T/C (dose: 12.5 mg/kg/injection, schedule: Q01DX005 (ip), vehicle: Klucel (hydroxypropylcellulose) (HPC)) was 95 % of control and the T/C (dose: 25.0 mg/kg/injection, schedule: Q01DX005 (ip), vehicle: Klucel (hydroxypropylcellulose) (HPC)) was 101 % of control.
`CSC(=S)N/N=C(\C)Cc1ccccn1` was tested, and the T/C (dose: 12.5 mg/kg/injection, schedule: Q01DX005 (ip), vehicle: saline with Tween-80) was 102 % of control, the T/C (dose: 25.0 mg/kg/injection, schedule: Q01DX005 (ip), vehicle: saline with Tween-80) was 100 % of control and the T/C [1] was 101 % of control and 95 % of control.
With `Brc1ccc2c(ccc3c2nnc2ncnn23)c1` the T/C [7] was 102 % of control, the T/C [8] was 93 % of control and the T/C [9] was 86 % of control.
For `COC(=O)C1CCC2C(C1)OC1(CC(OC(=O)/C=C\c3ccccc3)C(C)CO1)C2(O)CO` (stereo unspecified), the T/C (dose: 5.0 mg/kg/injection, schedule: Q01DX009 (ip), vehicle: saline + alcohol) was 98 % of control, the T/C (dose: 10.0 mg/kg/injection, schedule: Q01DX009 (ip), vehicle: saline + alcohol) was 103 % of control and the T/C (dose: 20.0 mg/kg/injection, schedule: Q01DX009 (ip), vehicle: saline + alcohol) was 105 % of control. The T/C (dose: 40.0 mg/kg/injection, schedule: Q01DX009 (ip), vehicle: saline + alcohol) was 105 % of control.
`Fc1cccc(F)c1C(Nc1nncs1)Nc1nncs1` was tested, and the T/C [4] was 108 % of control, the T/C [5] was 109 % of control and the T/C [6] was 160 % of control.
`C/C(C=O)=C\c1ccc(N(C)C)cc1` was tested, and the T/C [7] was 101 % of control, the T/C [8] was 101 % of control and the T/C [9] was 100 % of control.
With `CC(C)=NNC(=O)CNc1cccc(C(F)(F)F)c1` the T/C [4] was 97 % of control, the T/C [5] was 100 % of control and the T/C [6] was 106 % of control.
In the case of `C[CH2][Sn]1([CH2]C)[O]C(=O)CC(=O)[O]1`, the T/C (dose: 1.56 mg/kg/injection, schedule: Q04DX003 (ip), vehicle: saline) is reported as 105 % of control and 120 % of control, the T/C (dose: 3.12 mg/kg/injection, schedule: Q04DX003 (ip), vehicle: saline) is reported as 115 % of control and 118 % of control and the T/C (dose: 6.25 mg/kg/injection, schedule: Q04DX003 (ip), vehicle: saline) is reported as 114 % of control and 124 % of control. The T/C (dose: 12.5 mg/kg/injection, schedule: Q04DX003 (ip), vehicle: saline) was 109 % of control.
For `S=C(Nc1ccccc1)Nc1ccc(N(CCCl)CCCl)cc1`, the T/C (dose: 100.0 mg/kg/injection, schedule: Q04DX003 (ip), vehicle: Klucel (hydroxypropylcellulose) (HPC)) was 106 % of control, the T/C (dose: 200.0 mg/kg/injection, schedule: Q04DX003 (ip), vehicle: Klucel (hydroxypropylcellulose) (HPC)) was 114 % of control and the T/C (dose: 400.0 mg/kg/injection, schedule: Q04DX003 (ip), vehicle: Klucel (hydroxypropylcellulose) (HPC)) was 111 % of control.
`COC1(OC)C2C=CC1C1CC/C=C\CCC12` (stereo unspecified) was tested, and the T/C [10] was 106 % of control, the T/C [11] was 100 % of control and the T/C [12] was 103 % of control.
`CC1NC(=O)N(C(C)C)C1=O` (stereo unspecified) was tested, and the T/C [1] was 100 % of control, the T/C [2] was 100 % of control and the T/C [3] was 106 % of control.
In the case of `O=C1c2ccccc2C(=O)c2c(OCCOCCO)cccc21`, the T/C [1] is reported as 118 % of control, the T/C [2] is reported as 112 % of control and the T/C [3] is reported as 96 % of control.
With `O=C1C(=C2C=CN(CCN3CCCC3)C=C2)C(=O)c2ccccc21` the T/C (dose: 50.0 mg/kg/injection, schedule: Q01DX009 (ip), vehicle: Klucel (hydroxypropylcellulose) (HPC)) was 94 % of control, the T/C (dose: 100.0 mg/kg/injection, schedule: Q01DX009 (ip), vehicle: Klucel (hydroxypropylcellulose) (HPC)) was 99 % of control and the T/C (dose: 200.0 mg/kg/injection, schedule: Q01DX009 (ip), vehicle: Klucel (hydroxypropylcellulose) (HPC)) was 99 % of control.
For `OCC1OC(n2c(Cl)nc3ccccc32)C(O)C1O` (stereo unspecified), the T/C (dose: 60.0 mg/kg/injection, schedule: Q01DX005 (ip), vehicle: saline) was 100 % of control, the T/C (dose: 120.0 mg/kg/injection, schedule: Q01DX005 (ip), vehicle: saline) was 103 % of control and the T/C (dose: 240.0 mg/kg/injection, schedule: Q01DX005 (ip), vehicle: saline) was 98 % of control.
With `CC(C)(C)C(=O)CC(=O)C(C)(C)C.[Cl][Sb]1([Cl])[c]2ccccc2Cc2cccc[c]21` the T/C [10] was 100 % of control, the T/C [11] was 108 % of control and the T/C [12] was 107 % of control.
For `CC[n+]1ccc(C(=O)NN)cc1`, the T/C (dose: 12.5 mg/kg/injection, schedule: Q04DX002 (ip), vehicle: saline with Tween-80) was 97 % of control, the T/C (dose: 25.0 mg/kg/injection, schedule: Q04DX002 (ip), vehicle: saline with Tween-80) was 99 % of control and the T/C (dose: 50.0 mg/kg/injection, schedule: Q04DX002 (ip), vehicle: saline with Tween-80) was 105 % of control.
In the case of `CCc1c2cc(OC)c(OC)cc2cc2c3cc(OC)c(OC)cc3cc[n+]12` (tested in a mixture with another compound), the T/C (dose: 8.8 mg/kg/injection, schedule: Q04DX003 (ip), vehicle: saline) is reported as 108 % of control, the T/C (dose: 20.0 mg/kg/injection, schedule: Q04DX003 (ip), vehicle: saline) is reported as 122 % of control and the T/C (dose: 25.0 mg/kg/injection, schedule: Q01DX009 (ip), vehicle: saline) is reported as 151 % of control. The T/C (dose: 29.3 mg/kg/injection, schedule: Q01DX009 (ip), vehicle: saline with Tween-80) was 153 % of control, the T/C (dose: 37.5 mg/kg/injection, schedule: Q01DX009 (ip), vehicle: saline with Tween-80) was 167 % of control and the T/C (dose: 44.0 mg/kg/injection, schedule: Q01DX009 (ip), vehicle: saline with Tween-80) was 170 % of control. The T/C (dose: 50.0 mg/kg/injection, schedule: Q01DX009 (ip), vehicle: saline) was 178 % of control, the T/C (dose: 66.0 mg/kg/injection, schedule: Q01DX009 (ip), vehicle: saline with Tween-80) was 201 % of control and the T/C (dose: 75.0 mg/kg/injection, schedule: Q01DX009 (ip), vehicle: saline with Tween-80) was 208 % of control. For the same molecule, the T/C (dose: 88.0 mg/kg/injection, schedule: Q04DX003 (ip), vehicle: saline) was 150 % of control, the T/C (dose: 100.0 mg/kg/injection, schedule: Q04DX003 (ip), vehicle: saline with Tween-80) was 154 % of control and the T/C (dose: 150.0 mg/kg/injection, schedule: Q01DX009 (ip), vehicle: saline with Tween-80) was 234 % of control. For the same molecule, the T/C (dose: 150.0 mg/kg/injection, schedule: Q01DX009 (ip), vehicle: saline) was 244 % of control and 92 % of control, the T/C (dose: 200.0 mg/kg/injection, schedule: Q01DX009 (ip), vehicle: saline) was 171 % of control and the T/C (dose: 200.0 mg/kg/injection, schedule: Q04DX003 (ip), vehicle: saline with Tween-80) was 181 % of control. For the same molecule, the T/C (dose: 200.0 mg/kg/injection, schedule: Q04DX003 (ip), vehicle: saline) was 150 % of control and 191 % of control, the T/C (dose: 225.0 mg/kg/injection, schedule: Q01DX009 (ip), vehicle: saline) was 218 % of control and the T/C (dose: 300.0 mg/kg/injection, schedule: Q04DX003 (ip), vehicle: saline) was 195 % of control. For the same molecule, the T/C (dose: 400.0 mg/kg/injection, schedule: Q04DX003 (ip), vehicle: saline with Tween-80) was 90 % of control and the T/C (dose: 400.0 mg/kg/injection, schedule: Q04DX003 (ip), vehicle: saline) was 104 % of control.
In the case of `COc1ccc(OC)c(N2C(=O)C(Cl)=C(Cl)C2=O)c1`, the T/C (dose: 12.5 mg/kg/injection, schedule: Q01DX001 (ip), vehicle: saline with Tween-80) is reported as 100 % of control, the T/C (dose: 25.0 mg/kg/injection, schedule: Q01DX001 (ip), vehicle: saline with Tween-80) is reported as 100 % of control and the T/C (dose: 50.0 mg/kg/injection, schedule: Q01DX001 (ip), vehicle: saline with Tween-80) is reported as 114 % of control.
